Results taken from PMC4914440 (Pharmacological research, 2016).
Where “and” joins values, the source holds several entries; their conditions need not be identical. Equal values may be shown once.

What was measured:
h5-HT2A = h5-HT2A (Homo sapiens, UniProt P28223); settings: 10 μM efavirenz; cited from earlier work
5-HT2C receptor = molecular target: T1, 5-HT2C receptor (Homo sapiens, UniProt P28335); settings: serum free
T1 sequence (P28335 33-458): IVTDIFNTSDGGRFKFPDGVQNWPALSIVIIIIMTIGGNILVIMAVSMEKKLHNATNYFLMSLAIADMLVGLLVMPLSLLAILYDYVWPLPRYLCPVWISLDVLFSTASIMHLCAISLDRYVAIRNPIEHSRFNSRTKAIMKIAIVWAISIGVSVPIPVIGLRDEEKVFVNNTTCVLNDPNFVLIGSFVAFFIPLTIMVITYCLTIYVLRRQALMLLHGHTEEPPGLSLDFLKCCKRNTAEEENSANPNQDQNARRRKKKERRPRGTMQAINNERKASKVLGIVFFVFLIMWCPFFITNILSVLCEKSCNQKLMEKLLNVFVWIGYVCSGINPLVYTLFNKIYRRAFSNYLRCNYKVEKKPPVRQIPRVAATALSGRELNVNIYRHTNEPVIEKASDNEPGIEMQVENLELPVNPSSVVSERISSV

M1 muscarinic receptor = M1 muscarinic receptor (Homo sapiens, UniProt P11229)
[1] = cited from earlier work
[2] = within 1 hr of i.p. dose of 15 mg/kg; cited from earlier work
[3] = tested on: serotonin transporter (SERT); settings: 10 μM; cited from earlier work
[4] = Estimated brain concentration, authors' calculation
5-HT2A receptor = 5-HT2A receptor (Homo sapiens, UniProt P28223); test: Competition radioligand binding, concentration-response
h5-HT7 = h5-HT7 (Homo sapiens, UniProt P34969); test: Radioligand displacement by a fixed drug concentration, [3H]LSD; settings: 10 μM efavirenz
5-HT3A receptors = molecular target: T2, 5-HT3A receptors (Mus musculus, UniProt P23979); test: Whole cell electrophysiology, 5-HT-induced currents, HEK293 cells; settings: for reversibility of inhibition: 2–3 min washout, data not shown
T2 sequence (P23979 24-489): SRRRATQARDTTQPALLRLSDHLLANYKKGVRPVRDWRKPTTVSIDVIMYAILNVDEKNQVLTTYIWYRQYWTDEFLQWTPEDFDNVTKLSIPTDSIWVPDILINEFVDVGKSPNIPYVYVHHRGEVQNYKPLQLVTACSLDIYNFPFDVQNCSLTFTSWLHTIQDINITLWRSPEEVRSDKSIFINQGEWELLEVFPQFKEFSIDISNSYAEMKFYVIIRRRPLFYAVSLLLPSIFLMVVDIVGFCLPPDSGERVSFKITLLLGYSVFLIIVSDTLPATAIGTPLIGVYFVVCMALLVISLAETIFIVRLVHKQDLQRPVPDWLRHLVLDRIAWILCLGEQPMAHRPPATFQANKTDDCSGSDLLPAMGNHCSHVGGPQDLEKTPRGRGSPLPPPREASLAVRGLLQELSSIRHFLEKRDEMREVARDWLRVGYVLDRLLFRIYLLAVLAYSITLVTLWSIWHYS

Chain of 5-HT2A receptor (P28223 whole entry): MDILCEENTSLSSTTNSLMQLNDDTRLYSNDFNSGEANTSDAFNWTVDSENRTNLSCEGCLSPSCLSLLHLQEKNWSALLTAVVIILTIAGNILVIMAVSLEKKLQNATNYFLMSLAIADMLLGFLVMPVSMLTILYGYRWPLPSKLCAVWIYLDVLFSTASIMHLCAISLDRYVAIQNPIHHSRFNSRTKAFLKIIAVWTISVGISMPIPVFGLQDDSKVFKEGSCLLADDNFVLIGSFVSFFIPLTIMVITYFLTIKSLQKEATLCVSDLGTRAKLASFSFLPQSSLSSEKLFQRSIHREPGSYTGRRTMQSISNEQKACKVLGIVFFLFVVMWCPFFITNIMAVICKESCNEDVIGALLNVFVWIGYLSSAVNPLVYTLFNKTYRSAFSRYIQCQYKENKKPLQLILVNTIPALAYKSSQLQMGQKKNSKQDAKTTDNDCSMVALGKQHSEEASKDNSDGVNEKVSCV
Chain of M1 muscarinic receptor (P11229 whole entry): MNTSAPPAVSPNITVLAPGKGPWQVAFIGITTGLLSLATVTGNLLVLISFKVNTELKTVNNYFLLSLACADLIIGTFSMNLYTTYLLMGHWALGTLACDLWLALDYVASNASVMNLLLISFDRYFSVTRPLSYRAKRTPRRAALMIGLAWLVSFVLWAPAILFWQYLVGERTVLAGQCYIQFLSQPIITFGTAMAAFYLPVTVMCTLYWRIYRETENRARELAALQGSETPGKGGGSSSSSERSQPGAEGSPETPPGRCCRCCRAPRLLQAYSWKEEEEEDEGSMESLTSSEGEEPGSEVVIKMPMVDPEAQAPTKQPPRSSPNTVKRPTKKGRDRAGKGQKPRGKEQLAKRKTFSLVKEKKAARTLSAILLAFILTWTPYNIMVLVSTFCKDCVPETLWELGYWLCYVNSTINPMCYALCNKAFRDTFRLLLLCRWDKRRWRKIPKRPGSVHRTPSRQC
Chain of h5-HT2A (P28223 whole entry): as the sequence (P28223 whole entry) above
Chain of h5-HT7 (P34969 whole entry): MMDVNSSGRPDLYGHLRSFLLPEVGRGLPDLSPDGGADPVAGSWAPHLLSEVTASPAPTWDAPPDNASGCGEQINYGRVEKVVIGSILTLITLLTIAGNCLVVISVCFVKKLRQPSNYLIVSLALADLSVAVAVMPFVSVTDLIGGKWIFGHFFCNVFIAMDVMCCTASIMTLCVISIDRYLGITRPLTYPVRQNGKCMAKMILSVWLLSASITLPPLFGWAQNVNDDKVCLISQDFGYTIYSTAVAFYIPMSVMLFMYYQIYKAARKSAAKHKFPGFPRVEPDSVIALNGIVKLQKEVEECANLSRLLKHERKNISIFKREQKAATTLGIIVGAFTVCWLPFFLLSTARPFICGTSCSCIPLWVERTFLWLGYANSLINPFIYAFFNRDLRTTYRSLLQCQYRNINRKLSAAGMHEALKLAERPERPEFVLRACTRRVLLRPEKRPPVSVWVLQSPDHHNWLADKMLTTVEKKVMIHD

Compound: O=C1Nc2ccc(Cl)cc2[C@@](C#CC2CC2)(C(F)(F)F)O1 [efavirenz, (4S)-6-chloro-4-(2-cyclopropylethynyl)-4-(trifluoromethyl)-2,4-dihydro-1H-3,1-benzoxazin-2-one]
- displacement of specifically bound radioligand (h5-HT2A): ≥ 75%
- concentration completely suppressing the 5-HT agonist effect (5-HT2C receptor; 0.03 nM 5-HT (EC50)): ≥ 60 µM
- concentration inhibiting the 5-HT agonist effect (5-HT2C receptor; 0.03 nM 5-HT (EC50)): ≥ 10 µM
- concentration with no significant effect on 5-HT responses (5-HT2C receptor; 0.03 nM 5-HT (EC50)): up to 3 μM
- agonist activity (5-HT2C receptor): did not have any agonist activity
- stimulation of Gq-coupling alone (M1 muscarinic receptor): fails to stimulate
- concentration suppressing the carbachol Gq response (M1 muscarinic receptor; EC50 concentration of carbachol): ≥ 10 µM
- bound to plasma proteins [1]: approximately 99.8%
- brain levels relative to plasma levels [2]: exceed 4.6 times
- effect on serotonin reuptake [3]: blocks reuptake of serotonin
- estimated concentration in brain tissue ([4]; 44 nM ÷ 0.002): ~22 µM
- corresponding brain concentrations ([4]; plasma >2.74 μg/mL, assuming rat brain accumulation 4.6): > 40 µM
- Ki (5-HT2A receptor; affinity (Ki), [3H]MSP competition): 4.4 µM and 4.37 µM
- pseudo Hill slope (5-HT2A receptor; competition binding): −1.39 ± −0.18
- interaction (radioligand displacement) (h5-HT7): less pronounced or no detectable interaction
- IC50 (5-HT3A receptors): 4.9 ± 0.7 µM
- Hill coefficient (5-HT3A receptors; 0.6 μM 5-HT (EC30)): 1.2 ± 0.19
- effect alone (5-HT3A receptors; 10 μM, n = 5, data not shown): had no effect
- inhibition of steady-state currents (5-HT3A receptors; 30 μM): complete inhibition
- reversibility of inhibition (5-HT3A receptors; 30 μM): partially recovered
- reversibility of inhibition (5-HT3A receptors; up to 10 μM): completely reversible
